Read-outs that look alike come from different tables or passages of the source.
How the values were obtained:
NFκB / AP-1 = experiment: Inhibition of the activation of NFκB and AP-1 (luciferase reporter Jurkat T-cells, PMA/PHA stimulated); format: cell-based, human; conditions: stable Jurkat T-cells, read-out: NFκ/AP-1 IC50
Experimental: Stable human Jurkat T-cells containing an NFκB binding site (from the MHC promoter) fused to a minimal SV-40 promoter driving luciferase expression were used in this experiment. Cells were split to 3×10^5 cells/mL every 2-3 days (cell concentration should not exceed 1×10^6 cells/mL to keep the cells proliferating in log phase). These cells were counted, resuspended in fresh medium containing 10% Serum-Plus at a density of 1×10^6 cells/mL and plated in 96 well round bottom plates (200 μL per well) 18 hours prior to starting the experiment.
Compounds of this invention, dissolved in dimethyl sulfoxide (3.3, 0.33 and 0.03 μg/mL), were then added to the 96 well plates containing the cells and the plates are incubated for 0.5 h at 37° C. Then 50 ng/mL of phorbol 12-myristate-13-acetate (PMA) and 1 μg/mL of phytohemagglutinin (PHA) was added to each well and the cells were incubated for an additional 5 h at 37° C. The plates were centrifuged at 2200 RPM for 3 minutes at room temperature and then the medium was removed. To each well was added 60 μL of cell lysis buffer and the plates were left at room temperature for 0.25 h. Then 40 μL of each cell extract was transferred to a black 96 well plate and 50 μL of luciferase substrate buffer was added. Luminescence was immediately measured using a Packard TopCount.
For AP-1, the assay was run as described above for NFκB except stable Jurkat T-cells were used that contained a the -73 collagenase promoter driving luciferase expression. In addition, the concentration of PMA used was 5 ng/mL.

[1] = tested on: DTH response to oxazolone; experiment: Delayed type hypersensitivity study (oxazolone contact sensitivity model); format: in vivo, mice; conditions: for Right-Left Ear (mean ± SEM): ear thickness difference 24 h after challenge, vehicle 0.30 ± 0.02
Experimental: On day 0, oxazolone (100 μL of a 3% solution) was applied to the shaved abdomen of mice. On day 7, a challenge application of oxazolone was applied (10 μL) around the right ear. […] It was prepared immediately prior to use by suspending it in 0.25% methyl cellulose (Sigma) using a glass-teflon homogenizer. For each dose, 0.1 mL/10 g body weight of the suspension was administered. The compound was prepared at the highest concentration for that study and appropriate dilutions of the stock solution were made so that 0.1 mL/10 g body weight was administered. Twenty four hours later, the difference in right vs. left ear thickness was measured.

[2] = tested on: alloantigen-induced PLN proliferation; conditions: Morris et al., Transplantation Proceedings 22(Suppl. 1):110-112, 1990; cited from earlier work
[3] = tested on: DTH response to oxazolone; conditions: Morris et al., Transplantation Proceedings 22(Suppl. 1):110-112, 1990; cited from earlier work
β-actin = β-actin control cell line (effects on transcription); format: cell-based; conditions: control for effects on transcription; FIG. 3
Text: The results of the above assays for a representative compound of this invention, 2-chloro-4-trifluoromethyl-5-N-(3',5'-bistrifluoromethylphenyl)pyrimidine carboxamide, as percent inhibition versus control are presented in FIG. 3. This figure also indicates activity of β-actin which was employed in these assays as a control cell line indicating effects on transcription.

[4] = tested on: alloantigen-induced PLN proliferation; experiment: Murine popliteal lymph node (PLN) assay, graft vs. host model; format: in vivo, C3H mice (donor BALB/c mice)
Text: The murine popliteal lymph node (PLN) assay is a graft vs. host model that predicts activity of compounds in blocking human transplant rejection. The delayed-type hypersensitivity response to oxazolone is a standard contact sensitivity model. Both of these models are used routinely to evaluate compounds that are used clinically.
Spleens were removed from donor BALB/c mice and splenocytes were isolated then irradiated (3,000 rads) to prevent donor cell proliferation. After washing and adjusting cell density, 2.5×10^6 cells were injected subcutaneously into the left hind footpad of C3H mice. On day 4, the mice were sacrificed and left popliteal lymph nodes (PLNs) were weighed.
For doses of 10, 20 and 30 mg/kg, appropriate dilutions of the stock solution were made so that 0.1 mL/10 g body weight was administered by intraperitoneal injection.

Compound: 2-[N-(1-AMINOCITRACONAMIDE)]-4-TRIFLUOROMETHYL-5-[N-(3',5'-DICHLOROPHENYL)]-PYRIMIDINE-5-CARBOXAMIDE [Example 45]
- IC50 (NFκB / AP-1): 2000 nM

Compound: O=P1(N(CCCl)CCCl)NCCCO1 (stereo not shown) [Cyclophosphamide, reference compound]
- Right-Left Ear (mean ± SEM) ([1]; 50 mg/kg (i.p.)): 0.08 ± 0.01
- attenuation of the delayed-type response to oxazolone ([1]; 50 mg/kg i.p.): 73%
- activity in the PLN model (in words) [2]: active
- activity in the contact sensitivity model (in words) [3]: active

Compound: O=C(Nc1cc(C(F)(F)F)cc(C(F)(F)F)c1)c1cnc(Cl)nc1C(F)(F)F [Example 1, 2-CHLORO-4-TRIFLUOROMETHYL-5-N-[3',5'-BIS(TRIFLUOROMETHYL)PHENYL]PYRIMIDINECARBOXAMIDE]
- IC50 (NFκB / AP-1; Homo sapiens): 30 nM
- activity of β-actin (control cell line) (β-actin): lack of β-actin activity
- inhibition of PLN proliferation ([4]; 10 mg/kg, once daily intraperitoneal, day 0 through day 4): 52%
- suppression of alloantigen-induced PLN proliferation (in words) ([4]; 10, 20 and 30 mg/kg i.p.): dose-dependent suppression of alloantigen-induced PLN proliferation
- Right-Left Ear (mean ± SEM) ([1]; 10 mg/kg (i.p.)): 0.27 ± 0.01
- animal deaths during study ([1]; 30 mg/kg (i.p.)): One animal died during study
- Right-Left Ear (mean ± SEM) ([1]; 30 mg/kg (i.p.)): 0.13 ± 0.02
- attenuation of the delayed-type response to oxazolone ([1]; 30 mg/kg i.p.): 56%

Compound: O=C(Nc1ccc(C(F)(F)F)cc1)c1cnc(Cl)nc1C(F)(F)F [Example 2, 2-CHLORO-4-TRlFLUOROMETHYL-5-N(4'-TRIFLUOROMETHYLPHENYL)PYRIMIDINE CARBOXAMIDE]
- IC50 (NFκB / AP-1; Homo sapiens): 750 nM

Compound: O=C(Nc1cc(Cl)c(Cl)c(Cl)c1)c1cnc(Cl)nc1C(F)(F)F [Example 6, 2-CHLORO-4-TRIFLUOROMETHYL-5-N-(3',4',5'-TRICHLOROPHENYL)PYRIMIDINE CARBOXAMIDE]
- IC50 (NFκB / AP-1; Homo sapiens): 800 nM

Compound: O=C(Nc1cc(Cl)cc(Cl)c1O)c1cnc(Cl)nc1C(F)(F)F [Example 8, 2-CHLORO-4-TRIFLUOROMETHYL-5-N-(3',5'-DICHLORO-6'-HYDROXYPHENYL)PYRIMIDINE CARBOXAMIDE]
- IC50 (NFκB / AP-1; Homo sapiens): 6000 nM

Compound: CC(=O)Nc1cc(NC(=O)c2cnc(Cl)nc2C(F)(F)F)ccc1F [Example 10, 2-CHLORO-4-TRIFLUOROMETHYL-5-N-(3'-N-ACYL-4'-FLUORO-ANILINE)PYRIMIDINE CARBOXAMIDE]
- IC50 (NFκB / AP-1; Homo sapiens): 1000 nM

Compound: NC(=O)c1cc(NC(=O)c2cnc(Cl)nc2C(F)(F)F)cc(C(F)(F)F)c1 [Example 11, 2-CHLORO-4-TRIFLUOROMETHYL-5-N-(3'-TRIFLUOROMETHYL-5'-CARBOXAMIDEPHENYL) PYRIMIDINE CARBOXAMIDE]
- IC50 (NFκB / AP-1; Homo sapiens): 5000 nM

Compound: CCOC(=O)c1cc(NC(=O)c2cnc(Cl)nc2C(F)(F)F)cc(C(F)(F)F)c1 [Example 12, 2-CHLORO-4-TRIFLUOROMETHYL-5-N-(3'-TRIFLUOROMETHYL-5'-ETHOXYCARBONYLPHENYL)PYRIMIDINE CARBOXAMIDE]
- IC50 (NFκB / AP-1; Homo sapiens): 400 nM

Compound: CN(C(=O)c1cnc(Cl)nc1C(F)(F)F)c1cc(Cl)cc(Cl)c1 [Example 13, 2-CHLORO-4-TRIFLUOROMETHYL-5-N-(3',5'-DICHLOROPHENYL)-5-N-(METHYL)PYRIMIDINE CARBOXAMIDE]
- IC50 (NFκB / AP-1; Homo sapiens): 5000 nM

Compound: Cc1nc(Cl)nc(Cl)c1C(=O)Nc1cc(C(F)(F)F)cc(C(F)(F)F)c1 [Example 15, 5-N-[3',5'-BIS(TRIFLUOROMETHYL)PHENYL]2,4-DICHLORO-6-METHYLPYRIMIDINE CARBOXAMIDE]
- IC50 (NFκB / AP-1; Homo sapiens): 800 nM

Compound: Cc1nc(Cl)ncc1C(=O)Nc1cc(C(F)(F)F)cc(C(F)(F)F)c1 [Example 39, 2-CHLORO-4-METHYL-5-N-[3',5'-BIS(TRIFLUOROMETHYL)PHENYL]PYRIMIDINE CARBOXAMIDE]
- IC50 (NFκB / AP-1; Homo sapiens): 75 nM

Compound: O=C(Nc1cc(C(F)(F)F)cc(C(F)(F)F)c1)c1cnc(Cl)nc1Cl [Example 41, 2,4-DICHLORO-5-N-[3',5'-BIS(TRIFLUOROMETHYL)PHENYL]PYRIMIDINE-5-CARBOXAMIDE]
- IC50 (NFκB / AP-1; Homo sapiens): 600 nM

Compound: N#Cc1ncc(C(=O)Nc2cc(C(F)(F)F)cc(C(F)(F)F)c2)c(C(F)(F)F)n1 [Example 42, 2-CYANO-4-TRIFLUOROMETHYL-5-N-[3',5'-BIS(TRIFLUOROMETHYL)PHENYL]PYRIMIDINE CARBOXAMIDE]
- IC50 (NFκB / AP-1; Homo sapiens): > 10000 nM

Compound: O=C(Nc1cc(C(F)(F)F)cc(C(F)(F)F)c1)c1cnc(Cl)nc1-c1ccccc1 [Example 43, 2-CHLORO-4-PHENYL-5-N-[3',5'-BIS(TRIFLUOROMETHYL)PHENYL]PYRIMIDINE CARBOXAMIDE]
- IC50 (NFκB / AP-1; Homo sapiens): 500 nM

— US5811428A, “Pyrimidine carboxamides and related compounds and methods for treating inflammatory conditions” (Signal Pharmaceuticals, Inc., priority 1995, dated 1998)
